Here are results for 1 molecule from US5629469A, “Thiol protease inhibitor” (Sandoz Ltd., priority 1995, dated 1997).

For test [1], the system named is wCRW larvae. The test can be described thus: Artificial diet bioassay, neonate wCRW larvae. It counts as in vivo. The settings on record: Diabrotica virgifera, 144 h; diet supplemented with 0.01%; mortality at day 6; read-out: % wCRW mortality ± SE. As to the method:
Neonate wCRW larvae are allowed to feed on BioServe, a standard artificial diet used for southern corn rootworm. The diet is supplemented with the treatments indicated below in Table 3. Two or 3 larvae are placed in treatment wells with 9 replicate wells used per treatment. The larvae are allowed to feed on the diet and mortality is evaluated at day 6.

In test [2] the test system is proteolytic activity in the midgut extracts. To be noted: three species of beetles; cited from earlier work.

A word on the mortality: it is the share of the test organisms that died. `CC(C)C[C@H](NC(=O)[C@H]1O[C@@H]1C(=O)O)C(=O)NCCCCN=C(N)N` [E64, [N-(L-3 transcarrboxyoxiran-2-carbonyl)-L-leucyl]-amido(4-guanido)-butane]: the mortality at 0.01 % in test [1] was found to be 80 ± 8%. Also, the “inhibition of proteolytic activity in midgut extracts” value in test [2] was “much or most of the proteolytic activity in the midgut extracts was inhibited”.
